From US20230348442A1, “GALECTIN-3 INHIBITING 2-HYDROXYCYCLOALKANE-1-CARBAMOYL DERIVATIVES” (Idorsia Pharmaceuticals Ltd, priority 2020, published 2023)

target: human Gal-3 (hGal-3) (Homo sapiens (Human), UniProt P17931); test: competitive binding assay: binding of biotinylated hGal-3 to microplate-adsorbed asialofetuin (ASF), spectrophotometric; details: Activity on hGal-3; mean values of several measurements
Summary of the method: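 For hGal-1, a variant with all six cysteines replaced by serines is preferred. Either galectin, biotinylated at 300-1000 ng/mL, competes with compound for microplate-bound ASF over 3 h at 4° C; peroxidase/ABTS detection gives IC50, averaged.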

human Gal-3 (hGal-3), sequence (P17931 whole entry): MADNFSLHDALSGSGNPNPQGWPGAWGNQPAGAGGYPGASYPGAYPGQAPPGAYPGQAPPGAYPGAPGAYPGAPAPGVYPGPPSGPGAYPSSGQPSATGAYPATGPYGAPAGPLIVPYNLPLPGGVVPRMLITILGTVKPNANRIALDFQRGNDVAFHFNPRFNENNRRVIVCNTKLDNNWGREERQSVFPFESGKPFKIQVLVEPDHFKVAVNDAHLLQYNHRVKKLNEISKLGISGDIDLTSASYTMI

SMILES | IC50
CO[C@@H]1[C@@H](n2cc(-c3ccc(Br)c(F)c3F)nn2)[C@@H](O)[C@@H](CO)O[C@H]1C(=O)N(c1cc(Cl)cc(Cl)c1)[C@H]1CCC[C@@H]1O [Example 1.12.2, (2R,3R,4S,5R,6R)-4-(4-(4-bromo-2,3-difluorophenyl)-1H-1,2,3-triazol-1-yl)-N-(3,5-dichlorophenyl)-5-hydroxy-N-((1S,2S)-2-hydroxycyclopentyl)-6-(hydroxymethyl)-3-methoxytetrahydro-2H-pyran-2-carboxamide] | 23.7 nM
CO[C@@H]1[C@@H](n2cc(-c3ccc(Br)c(F)c3F)nn2)[C@@H](O)[C@@H](CO)O[C@H]1C(=O)N(c1cc(Cl)cc(C#N)c1)[C@@H]1CCC[C@H]1O [Example 1.12.4R, (2R,3R,4S,5R,6R)-4-(4-(4-bromo-2,3-difluorophenyl)-1H-1,2,3-triazol-1-yl)-N-(3-chloro-5-cyanophenyl)-5-hydroxy-N-((1R,2R)-2-hydroxycyclopentyl)-6-(hydroxymethyl)-3-methoxytetrahydro-2H-pyran-2-carboxamide] | 90.7 nM
CO[C@@H]1[C@@H](n2cc(-c3ccc(Br)c(F)c3F)nn2)[C@@H](O)[C@@H](CO)O[C@H]1C(=O)N(c1cc(Br)cc(C#N)c1)[C@H]1CCC[C@@H]1O [Example 1.12.5, (2R,3R,4S,5R,6R)-4-(4-(4-bromo-2,3-difluorophenyl)-1H-1,2,3-triazol-1-yl)-N-(3-bromo-5-cyanophenyl)-5-hydroxy-N-((1S,2S)-2-hydroxycyclopentyl)-6-(hydroxymethyl)-3-methoxytetrahydro-2H-pyran-2-carboxamide] | 13.6 nM
CO[C@@H]1[C@@H](n2cc(-c3ccc(C)c(F)c3)nn2)[C@@H](O)[C@@H](CO)O[C@H]1C(=O)N(c1cc(Br)cc(C#N)c1)[C@H]1CCC[C@@H]1O [Example 1.13.5, (2R,3R,4S,5R,6R)—N-(3-bromo-5-cyanophenyl)-4-(4-(3-fluoro-4-methylphenyl)-1H-1,2,3-triazol-1-yl)-5-hydroxy-N-((1S,2S)-2-hydroxycyclopentyl)-6-(hydroxymethyl)-3-methoxytetrahydro-2H-pyran-2-carboxamide] | 17.1 nM
CO[C@@H]1[C@@H](n2cc(-c3ccc(C)c(F)c3)nn2)[C@@H](O)[C@@H](CO)O[C@H]1C(=O)N(c1cc(C)cc(C#N)c1)[C@@H]1CCC[C@H]1O [Example 1.13.8R, (2R,3R,4S,5R,6R)-N-(3-cyano-5-methylphenyl)-4-(4-(3-fluoro-4-methylphenyl)-1H-1,2,3-triazol-1-yl)-5-hydroxy-N-((1R,2R)-2-hydroxycyclopentyl)-6-(hydroxymethyl)-3-methoxytetrahydro-2H-pyran-2-carboxamide] | 206 nM
CO[C@@H]1[C@@H](n2cc(-c3ccc(Cl)c(F)c3F)nn2)[C@@H](O)[C@@H](CO)O[C@H]1C(=O)N(c1cc(Cl)cc(C#N)c1)[C@H]1CCC[C@@H]1O [Example 1.14.4, (2R,3R,4S,5R,6R)-4-(4-(4-chloro-2,3-difluorophenyl)-1H-1,2,3-triazol-1-yl)-N-(3-chloro-5-cyanophenyl)-5-hydroxy-N-((1S,2S)-2-hydroxycyclopentyl)-6-(hydroxymethyl)-3-methoxytetrahydro-2H-pyran-2-carboxamide] | 12.5 nM
CO[C@@H]1[C@@H](n2cc(-c3ccc(Cl)c(F)c3F)nn2)[C@@H](O)[C@@H](CO)O[C@H]1C(=O)N(c1cc(Cl)cc(C#N)c1)[C@@H]1CCC[C@H]1O [Example 1.14.4R, (2R,3R,4S,5R,6R)-4-(4-(4-chloro-2,3-difluorophenyl)-1H-1,2,3-triazol-1-yl)-N-(3-chloro-5-cyanophenyl)-5-hydroxy-N-((1R,2R)-2-hydroxycyclopentyl)-6-(hydroxymethyl)-3-methoxytetrahydro-2H-pyran-2-carboxamide] | 89.8 nM
CO[C@@H]1[C@@H](n2cc(-c3ccc(Cl)c(F)c3F)nn2)[C@@H](O)[C@@H](CO)O[C@H]1C(=O)N(c1cc(Br)cc(C#N)c1)[C@H]1CCC[C@@H]1O [Example 1.14.5, (2R,3R,4S,5R,6R)-N-(3-bromo-5-cyanophenyl)-4-(4-(4-chloro-2,3-difluorophenyl)-1H-1,2,3-triazol-1-yl)-5-hydroxy-N-((1S,2S)-2-hydroxycyclopentyl)-6-(hydroxymethyl)-3-methoxytetrahydro-2H-pyran-2-carboxamide] | 17.4 nM

More lines, in order of falling IC50, values ahead:

IC50 | SMILES
167 nM | CO[C@@H]1[C@@H](n2cc(-c3ccc(C)c(F)c3)nn2)[C@@H](O)[C@@H](CO)O[C@H]1C(=O)N(c1cc(Br)cc(C#N)c1)[C@@H]1CCC[C@H]1O [Example 1.13.5R, (2R,3R,4S,5R,6R)-N-(3-bromo-5-cyanophenyl)-4-(4-(3-fluoro-4-methylphenyl)-1H-1,2,3-triazol-1-yl)-5-hydroxy-N-((1R,2R)-2-hydroxycyclopentyl)-6-(hydroxymethyl)-3-methoxytetrahydro-2H-pyran-2-carboxamide]
94.6 nM | CO[C@@H]1[C@@H](n2cc(-c3ccc(Br)c(F)c3F)nn2)[C@@H](O)[C@@H](CO)O[C@H]1C(=O)N(c1cc(F)cc(C#N)c1)[C@@H]1CCC[C@H]1O [Example 1.12.7R, (2R,3R,4S,5R,6R)-4-(4-(4-bromo-2,3-difluorophenyl)-1H-1,2,3-triazol-1-yl)-N-(3-cyano-5-fluorophenyl)-5-hydroxy-N-((1R,2R)-2-hydroxycyclopentyl)-6-(hydroxymethyl)-3-methoxytetrahydro-2H-pyran-2-carboxamide]
73.1 nM | CO[C@@H]1[C@@H](n2cc(-c3ccc(C)c(F)c3F)nn2)[C@@H](O)[C@@H](CO)O[C@H]1C(=O)N(c1cc(Br)cc(C#N)c1)[C@@H]1CCC[C@H]1O [Example 1.11.5R, (2R,3R,4S,5R,6R)-N-(3-bromo-5-cyanophenyl)-4-(4-(2,3-difluoro-4-methylphenyl)-1H-1,2,3-triazol-1-yl)-5-hydroxy-N-((1R,2R)-2-hydroxycyclopentyl)-6-(hydroxymethyl)-3-methoxytetrahydro-2H-pyran-2-carboxamide]
33.2 nM | CO[C@@H]1[C@@H](n2cc(-c3ccc(C)c(F)c3)nn2)[C@@H](O)[C@@H](CO)O[C@H]1C(=O)N(c1cc(C)cc(C#N)c1)[C@H]1CCC[C@@H]1O [Example 1.13.8, (2R,3R,4S,5R,6R)-N-(3-cyano-5-methylphenyl)-4-(4-(3-fluoro-4-methylphenyl)-1H-1,2,3-triazol-1-yl)-5-hydroxy-N-((1S,2S)-2-hydroxycyclopentyl)-6-(hydroxymethyl)-3-methoxytetrahydro-2H-pyran-2-carboxamide]
21.7 nM | CO[C@@H]1[C@@H](n2cc(-c3ccc(Br)c(F)c3F)nn2)[C@@H](O)[C@@H](CO)O[C@H]1C(=O)N(c1cc(Cl)cc(C#N)c1)[C@H]1CCC[C@@H]1O [Example 1.12.4, (2R,3R,4S,5R,6R)-4-(4-(4-bromo-2,3-difluorophenyl)-1H-1,2,3-triazol-1-yl)-N-(3-chloro-5-cyanophenyl)-5-hydroxy-N-((1S,2S)-2-hydroxycyclopentyl)-6-(hydroxymethyl)-3-methoxytetrahydro-2H-pyran-2-carboxamide]
21.2 nM | CO[C@@H]1[C@@H](n2cc(-c3ccc(Br)c(F)c3F)nn2)[C@@H](O)[C@@H](CO)O[C@H]1C(=O)N(c1cc(F)cc(C#N)c1)[C@H]1CCC[C@@H]1O [Example 1.12.7, (2R,3R,4S,5R,6R)-4-(4-(4-bromo-2,3-difluorophenyl)-1H-1,2,3-triazol-1-yl)-N-(3-cyano-5-fluorophenyl)-5-hydroxy-N-((1S,2S)-2-hydroxycyclopentyl)-6-(hydroxymethyl)-3-methoxytetrahydro-2H-pyran-2-carboxamide]
